In patent US9469637B2, “Nitrogenated heterocyclic compound” (Takeda Pharmaceutical Company Limited, priority 2012, dated 2016):

Molecular target: T1, Human PDE2A3 enzyme (Homo sapiens, UniProt O00408)
T1 construct: generated from Sf9 cells transfected with the full-length gene; His-tag; made in house; host or cells: Sf9 insect cells
Experiment: PDE2A3 enzyme inhibition, SPA (Scintillation Proximity Assay)
Format: biochemical
Conditions: 1 μM compound, substrate [3H] cGMP, read-out: Inhibition Rate (%) (1 μM)
Experimental: Human PDE2A3 enzyme was generated from Sf9 cells transfected with the full-length gene. The extracted enzyme from Sf9 cells was purified by His-tag affinity column and gel filtration. The enzyme was stored at −70° C. until use. PDE activity was measured using a SPA (Scintillation Proximity Assay) (GE Healthcare). To evaluate the inhibitory activity, 10 μl of serial diluted compounds were incubated with 20 μl of PDE enzyme in assay buffer (50 mM HEPES-NaOH, 8.3 mM MgCl2, 1.7 mM EGTA, 0.1% BSA (pH 7.4)) for 30 min. at room temperature. Final concentration of DMSO in the assay was 1 percent as compounds were tested in duplicate in 96-well half-area plates (Corning) or 384-well OptiPlate (PerkinElmer). To start the reaction, 10 μl of substrate [^3H] cGMP (77 nM, PerkinElmer) was added for a final assay volume of 40 μl. After 60 min incubation at room temperature, 20 μl of 20 mg/ml yttrium SPA beads containing Zinc sulphate was added to terminate the PDE reaction. […] Inhibition rate was calculated on the basis of 0% control wells with enzyme and DMSO, and 100% control wells without enzyme.

T1 sequence (O00408 whole entry): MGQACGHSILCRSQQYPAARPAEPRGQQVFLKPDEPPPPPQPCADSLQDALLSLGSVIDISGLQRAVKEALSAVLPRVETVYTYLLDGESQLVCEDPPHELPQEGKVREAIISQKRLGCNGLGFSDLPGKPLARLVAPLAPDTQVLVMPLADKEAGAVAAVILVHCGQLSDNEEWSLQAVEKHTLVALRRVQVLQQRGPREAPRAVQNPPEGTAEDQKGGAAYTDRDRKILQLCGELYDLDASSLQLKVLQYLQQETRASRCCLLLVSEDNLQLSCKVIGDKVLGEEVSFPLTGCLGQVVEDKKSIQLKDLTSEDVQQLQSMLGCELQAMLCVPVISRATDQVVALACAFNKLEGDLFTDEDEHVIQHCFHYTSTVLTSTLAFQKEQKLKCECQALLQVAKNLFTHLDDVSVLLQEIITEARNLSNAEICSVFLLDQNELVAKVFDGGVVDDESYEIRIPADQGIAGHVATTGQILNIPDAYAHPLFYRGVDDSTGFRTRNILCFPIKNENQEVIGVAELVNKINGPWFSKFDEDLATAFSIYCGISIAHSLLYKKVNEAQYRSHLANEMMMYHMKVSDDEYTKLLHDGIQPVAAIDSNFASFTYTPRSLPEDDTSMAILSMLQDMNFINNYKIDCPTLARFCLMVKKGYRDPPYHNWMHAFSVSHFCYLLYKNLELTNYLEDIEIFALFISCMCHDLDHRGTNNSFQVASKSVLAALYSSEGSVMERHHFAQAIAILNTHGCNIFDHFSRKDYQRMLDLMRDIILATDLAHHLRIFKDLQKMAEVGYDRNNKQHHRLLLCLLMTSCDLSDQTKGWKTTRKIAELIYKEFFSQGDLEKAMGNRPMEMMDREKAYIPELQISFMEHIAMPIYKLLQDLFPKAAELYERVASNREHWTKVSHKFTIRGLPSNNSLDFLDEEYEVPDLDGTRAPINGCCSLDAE

inhibition at 1 µM [%]	Structure (SMILES)
100	CC(C)(O)C(NC(=O)N1CC(=O)Nc2cc(C3CC3)cnc21)c1ccc(C(F)(F)F)cc1 (stereo not drawn) [Example 266, Optically active 7-cyclopropyl-N-(2-hydroxy-2-methyl-1-(4-(trifluoromethyl)phenyl)propyl)-2-oxo-2,3-dihydropyrido[2,3-b]pyrazine-4(1H)-carboxamide]
98	Cc1cnc2c(c1)NC(=O)CN2C(=O)NC(c1ccc(OC(F)(F)F)c(F)c1)C(C)(C)O (stereo not drawn) [Example 273, Optically active N-(1-(3-fluoro-4-(trifluoromethoxy)phenyl)-2-hydroxy-2-methylpropyl)-7-methyl-2-oxo-2,3-dihydropyrido[2,3-b]pyrazine-4(1H)-carboxamide]
100	COc1cc2c(nc1C)N(C(=O)N[C@@H](c1ccc(OC(F)(F)F)cc1)C(C)(C)O)CC(=O)N2 [Example 253, N-((1S)-2-hydroxy-2-methyl-1-(4-(trifluoromethoxy)phenyl)propyl)-7-methoxy-6-methyl-2-oxo-2,3-dihydropyrido[2,3-b]pyrazine-4(1H)-carboxamide]
100	COc1nc2c(cc1C)NC(=O)CN2C(=O)N[C@@H](c1ccc(OC(F)(F)F)cc1)C(C)(C)O [Example 261, N-((1S)-2-hydroxy-2-methyl-1-(4-(trifluoromethoxy)phenyl)propyl)-6-methoxy-7-methyl-2-oxo-2,3-dihydropyrido[2,3-b]pyrazine-4(1H)-carboxamide]
99	COc1cnc2c(c1)NC(=O)CN2C(=O)NC(c1ccc(C(F)(F)F)cc1)C(C)(C)O (stereo not drawn) [Example 268, Optically active N-(2-hydroxy-2-methyl-1-(4-(trifluoromethyl)phenyl)propyl)-7-methoxy-2-oxo-2,3-dihydropyrido[2,3-b]pyrazine-4(1H)-carboxamide]

The remaining lines, values behind:

Structure (SMILES)	inhibition at 1 µM [%]
Cc1cnc2c(c1)NC(=O)CN2C(=O)NC1(c2ccc(OC(F)(F)F)cc2)CC1 [Example 152, 7-methyl-2-oxo-N-(1-(4-(trifluoromethoxy)phenyl)cyclopropyl)-2,3-dihydropyrido[2,3-b]pyrazine-4(1H)-carboxamide]	97
CCC(NC(=O)N1CC(=O)Nc2ccc(OC)nc21)c1ccc(OC(F)(F)F)cc1 (stereo not drawn) [Example 52, 6-methoxy-2-oxo-N-(1-(4-(trifluoromethoxy)phenyl)propyl)-2,3-dihydropyrido[2,3-b]pyrazine-4(1H)-carboxamide]	93
COCC(NC(=O)N1CC(=O)Nc2ccc(-c3ccn(C)n3)nc21)c1ccc(OC(F)(F)F)cc1 (stereo not drawn) [Example 222, N-(2-methoxy-1-(4-(trifluoromethoxy)phenyl)ethyl)-6-(1-methyl-1H-pyrazol-3-yl)-2-oxo-2,3-dihydropyrido[2,3-b]pyrazine-4(1H)-carboxamide]	99
COC[C@@H](NC(=O)N1CC(=O)Nc2ccc(-n3cccn3)nc21)c1ccc(OC(F)(F)F)cc1 [Example 130, N-((1S)-2-methoxy-1-(4-(trifluoromethoxy)phenyl)ethyl)-2-oxo-6-(1H-pyrazol-1-yl)-2,3-dihydropyrido[2,3-b]pyrazine-4(1H)-carboxamide]	99
COC[C@@H](NC(=O)N1CC(=O)Nc2ccc(-n3cccn3)nc21)c1ccc(OC(F)(F)F)c(F)c1 [Example 117, N-((1S)-1-(3-fluoro-4-(trifluoromethoxy)phenyl)-2-methoxyethyl)-2-oxo-6-(1H-pyrazol-1-yl)-2,3-dihydropyrido[2,3-b]pyrazine-4(1H)-carboxamide]	99
Cc1cnc2c(c1)NC(=O)CN2C(=O)NC(c1ccc(OC(F)(F)F)cc1)C1CCCO1 (stereo not drawn) [Example 200, 7-methyl-2-oxo-N-(tetrahydrofuran-2-yl(4-(trifluoromethoxy)phenyl)methyl)-2,3-dihydropyrido[2,3-b]pyrazine-4(1H)-carboxamide]	100
CC(C)(O)C(NC(=O)N1CC(=O)Nc2cc(C3CC3)cnc21)c1ccc(OC(F)(F)F)c(F)c1 (stereo not drawn) [Example 76, Optically active 7-cyclopropyl-N-(1-(3-fluoro-4-(trifluoromethoxy)phenyl)-2-hydroxy-2-methylpropyl)-2-oxo-2,3-dihydropyrido[2,3-b]pyrazine-4(1H)-carboxamide]	100
CCC(NC(=O)N1CC(=O)Nc2cc(C)cnc21)c1ccc(-n2cccn2)s1 (stereo not drawn) [Example 162, 7-methyl-2-oxo-N-(1-(5-(1H-pyrazol-1-yl)-2-thienyl)propyl)-2,3-dihydropyrido[2,3-b]pyrazine-4(1H)-carboxamide]	97
COCC(NC(=O)N1CC(=O)Nc2cc(C)cnc21)c1ccc(-n2cccn2)c(F)c1 (stereo not drawn) [Example 143, N-(1-(3-fluoro-4-(1H-pyrazol-1-yl)phenyl)-2-methoxyethyl)-7-methyl-2-oxo-2,3-dihydropyrido[2,3-b]pyrazine-4(1H)-carboxamide]	98
COCC(NC(=O)N1CC(=O)Nc2cc(C)cnc21)c1ccc(-n2cccn2)cc1 (stereo not drawn) [Example 134, N-(2-methoxy-1-(4-(H-pyrazol-1-yl)phenyl)ethyl)-7-methyl-2-oxo-2,3-dihydropyrido[2,3-b]pyrazine-4(1H)-carboxamide]	97
